“And” between values parts separate entries of the source, which are not always exact repeats. Equal entries are not always repeated. “Also recorded” adds a separate entry of the source.
Key:
four healthy volunteers [1] = experiment: Example 7: Stanford Sleepiness Scale study with alprazolam; type: in vivo, human; conditions: for time until subjects were asleep: all four subjects; for 2 Hr SSS / 4 Hr SSS / 6 Hr SSS: individual subjects
Protocol: The research study was performed on four healthy volunteers, ages 25-41 years old and 60-75 kg. The study was carried out in two sessions with one week in between. During the study volunteers completed a test to measure sleepiness by Stanford Sleepiness Scale (SSS). This SSS test was done before doses of the compositions being evaluated and 2, 4 and 6 hours after such doses (see FIG. 5 for an illustration of the study scheme).
At the first session, volunteers received the treatment (Alprazolam 1.0 mg)+PLAC (placebo)+ and 15 minutes later another PLAC. […] Their SSS score at 2 hour time point was 6 (woozy, fighting sleep). […] The other 2 patients slept through the 2, 4 and 6 hour testing.
At the second study session, volunteers received the treatment (Alprazolam 1.0 mg+60 mg of pseudoephedrine) and 15 minutes later received 400 mg of guaifenesin. […] After 2 and half hours, three out of the four subjects woke up and stayed awake for the rest of the time. Their SSS scores for 4 hour time point test were 2, 3 and 5, for 6 hour time point test SSS scores were 1, 3, 2. The fourth subject woke up for the 6 hour time point test and their SSS score was 3.

[2] = tested on: 8 patients suffering from GAD; experiment: Example 10: single blind trial of alprazolam with neuromodulators in GAD; type: in vivo, human; conditions: alprazolam 1 mg with pseudoephedrine 60 mg, guaifenesinER 600 mg 15 minutes later; one week
Protocol: The study was a single blind trial in which a panel of 8 patients suffering from GAD were administered alprazolam (1 mg), pseudoephedrine (60 mg), and guaifenesinER (600 mg). Subjects underwent an initial screening and then two weeks of testing with the medications of the study (see FIG. 7 for an illustration of the study scheme). Fourteen days prior to the first treatment session, subjects were screened with a standard medical/psychiatric history and physical exam (Screening Visit, Visit 1). Standard laboratory tests were performed at Screening Visit 1 including those of chemistry, hematology and urinalysis, urine test for drugs of abuse, HIV and hepatitis B and C serology tests, 12-lead resting electrocardiogram, and serum pregnancy test for females.
Prior to administration of the placebo treatment, the subjects were rated on the Hamilton Anxiety Scale, Quality of Life Questionnaire, and the Stanford Sleepiness Scale (SSS) (Visit 2, data not shown). Subjects complained of oversedation (SSS score of 4 or greater) from their psychopharmacologic regimen, which included benzodiazepine or alprazolam therapy.
Subjects were given a placebo medication that mimics the two neuromodulators for 7 days and underwent another series of tests at the end of this 7-day period (Visit 3). […]

[3] = tested on: one GAD patient, a person; experiment: Example 11: alprazolam with neuromodulators in one GAD patient; type: in vivo, human
Protocol: The study was performed on one GAD patient. Fourteen days prior to the first treatment session, the subject was screened with a standard medical/psychiatric history and physical exam. The subject was rated on the Hamilton Anxiety Scale the Stanford Sleepiness Scale (SSS).
During their second visit, immediately prior to administration of alprazolam and placebo, the subject was rated on the Hamilton Anxiety Scale, Quality of Life Questionaire and SSS (pre dose, time 0). Following these tests, the subject received a regular morning alprazolam dose and placebo to mimic pseudoephedrine. Fifteen minutes later, the subject received approximately 120 ml of water and placebo to mimic guaifenesin. The subject was rated on the SSS at 2 hours (anticipated peak plasma concentration) and 4 hours following administration alprazolam. The subject was given enough placebo medication to last for one week (until Visit 3) with the exact instructions to take their medications in the same manner as described above. During this 7-day period, the subject completed an SSS questionaire (Table 16, Placebo). Ratings on the SSS were recorded immediately before (pre) and 3 hours following (post) administration of alprazolam.
During Visit 3, the subject was rated on the Hamilton Anxiety Scale, Quality of Life Questionaire, and SSS 3 hours after initial dose. The subject was then given the active neuromodulators and told to start with them on the next day following ingestion of the regular alprazolam medication. The subject took pseudoephedrine with alprazolam and Mucinex 15 minutes later (neuromodulators were given no more than twice a day and not after 6 PM). Three hours after each dose, the subject recorded their SSS measurements (Table 16, Treatment). […] Throughout this week, the subject recorded SSS scores of 1 (high alertness, no sedatition).

[4] = parent drug; cited from earlier work
[5] = CNS active agent; cited from earlier work
subject = experiment: Example 5: Lorazepam with pseudoephedrine and Mucinex, subject report; type: in vivo, human; conditions: Lorazepam 1 mg and pseudoephedrine 60 mg; 15 minutes later Mucinex 600 mg
Protocol: The subject reported that they took Lorazepam 1 mg and pseudoephedrine 60 mg at 12 noon and 15 minutes later ingested and Mucinex 600 mg.

[6] = tested on: Volunteer A, a healthy person; experiment: Example 6: Volunteer A, Lorazepam with and without neuromodulators; type: in vivo, human
Protocol: Volunteer A, a healthy person ([…], 95 Kg), was prescribed 1 mg Lorazepam (BDR) by their family doctor for anxiety and anxiety related insomnia. Volunteer A took Lorazepam in conjunction with the neuromodulators to reduce Lorazepam's associated sedative side-effects. Volunteer A, who felt their anxiety peak particularly on weekends, agreed to take Lorazepam during the day together with the neuromodulators. […] When taking Lorazepam simultaneously with Pseudoephedrine, Guaifenesin and, Volunteer A was sedated and less anxious.

four healthy volunteers [7] = experiment: Example 9: Stanford Sleepiness Scale study with lorazepam; type: in vivo, human; conditions: for 2:00 SSS / 4:00 SSS / 6:00 SSS / time until subject was asleep: individual subjects
Protocol: The purpose of this study was to determine if the co-administration of pseudoephedrine and guaifenesin with lorazepam is effective in reducing the sedation commonly seen with the administration of lorazepam alone. The research study was performed on four healthy volunteers ages 25-41 years old and 60-75 kg. The study was carried out by two sessions with a one-week interval between the sessions. During the study volunteers completed a set of tests to measure sleepiness by the Stanford Sleepiness Scale (SSS). This test was done before doses of study drug and 2, 4 and 6 hours after doses of study drug (see FIG. 5 for an illustration of the study scheme).
At the first study session volunteers received the treatment (Lorazepam 1.0 mg)+PLAC (placebo)+ and 15 minutes later another PLAC. […] They stayed awake at the 4- and 6-hour time points. Their SSS scores were 2. Two subjects were asleep in one hour. One of them slept 3.5 hours, their SSS at the 6-hour time point was 2. The second subject slept 2.5 hours, and their SSS scores for both the 4- and 6-hour time points were 2. […] They remained awake at the 4- and 6-hour time points. Their SSS scores were 2.
At the second study session volunteers received the treatment (Lorazepam 1.0 mg+60 mg of pseudoephedrine) and 15 minutes later received 400 mg of guaifenesin. During this session all four subjects remained awake most of the time. […] They missed the 2-hour time point measurement, and their SSS scores for the 4- and 6-hour time points were 2 and 3, respectively. […] Their SSS score for 2-hour time point was 2. This subject was asleep again within 3 and a half hours and slept for one hour. They missed the 4-hour time point, but was awake for measurements at the 6-hour time point (SSS was 2). […] They stayed awake the rest of the time, and their SSS scores for the 2-, 4-, and 6-hour time points were 3,2,3 respectively.

[8] = First Visit Day on Placebo: Alprazolam 1.0 mg + placebo
[9] = First Visit Day on Placebo: Alprazolam 1.0 mg + placebo, listed as alprazolam
[10] = Second Visit Day on Active Neuromodulation: Alprazolam 1.0 mg + 60 mg pseudoephedrine, 400 mg guaifenesin 15 minutes later
[11] = Second Visit Day on Active Neuromodulation: Alprazolam 1.0 mg + 60 mg pseudoephedrine, 400 mg guaifenesin 15 minutes later, listed as alprazolam
[12] = 1 mg Lorazepam together with Pseudoephedrine followed by Guaifenesin after 15 minutes
[13] = Lorazepam followed 15 minutes later by Guaifenesin
[14] = Lorazepam simultaneously with Pseudoephedrine, Guaifenesin
[15] = Lorazepam together with pseudoephedrine
[16] = First Visit Day on Placebo: Lorazepam 1.0 mg + placebo
[17] = First Visit Day on Placebo: Lorazepam 1.0 mg + placebo, listed as lorazepam
[18] = Lorazepam 1.0 mg + pseudoephedrine, guaifenesin 15 minutes later
[19] = Second Visit Day on Active Neuromodulation: Lorazepam 1.0 mg + 60 mg pseudoephedrine, 400 mg guaifenesin 15 minutes later
[20] = Second Visit Day on Active Neuromodulation: Lorazepam 1.0 mg + 60 mg pseudoephedrine, 400 mg guaifenesin 15 minutes later, listed as lorazepam

Cc1nnc2n1-c1ccc(Cl)cc1C(c1ccccc1)=NC2 [Alprazolam]
time until subjects were asleep (four healthy volunteers [1]; Alprazolam 1.0 mg + placebo): within an hour and a half
time until subjects were asleep (four healthy volunteers [1]; Alprazolam 1.0 mg + pseudoephedrine, guaifenesin 15 minutes later): within an hour and a half
2 Hr SSS (four healthy volunteers [1]; [8]): 6
4 Hr SSS (four healthy volunteers [1]; [8]): 6
2 Hr SSS (four healthy volunteers [1]; [9]): X - asleep (3×) and 6
4 Hr SSS (four healthy volunteers [1]; [9]): X - asleep (3×) and 6
6 Hr SSS (four healthy volunteers [1]; [9]): X - asleep (3×) and 3
2 Hr SSS (four healthy volunteers [1]; [10]): X - asleep
4 Hr SSS (four healthy volunteers [1]; [10]): 2 and 3 and 5
6 Hr SSS (four healthy volunteers [1]; [10]): 1 and 3 and 2
4 Hr SSS (four healthy volunteers [1]; [11]): 2 and X - asleep and 5 and 3
6 Hr SSS (four healthy volunteers [1]; [11]): 1 and 3 (2×) and 2
total sleep time (four healthy volunteers [1]; second session, Alprazolam administrated with neuromodulators, all four patients): 1.5 to 2.5 h
sedation-related effects as measured by the SSS [2]: significantly reduced
alertness and sedation by SSS, in words ([3]; 7-day period on alprazolam + placebo): significantly reduced alertness and increased sedation
SSS Score ([3]; Placebo (alprazolam + placebo), post: 3 hours following alprazolam, Days 1-7): X - asleep
SSS Score ([3]; Placebo column, 3 h post dose (before Day 1)): X - asleep
SSS Score ([3]; Placebo column, Screen): 6
SSS Score ([3]; Treatment (alprazolam + pseudoephedrine, Mucinex 15 minutes later), post: three hours after dose, Days 8-15): 1
SSS Score ([3]; Treatment (alprazolam + pseudoephedrine, Mucinex 15 minutes later), pre, Days 10-15): 1
efficacy by Hamilton Anxiety Scale ([3]; alprazolam + active neuromodulators): did not show any reduction in the efficacy
SSS data relative to placebo treatment, in words ([3]; week on alprazolam + active neuromodulators): dramatic improvement relative to the placebo treatment
Elimination Half-Life [4]: 6 to 12 h
Tmax [5]: 1 to 2 h
bioactivity [5]: 55%

O=C1Nc2ccc(Cl)cc2C(c2ccccc2Cl)=NC1O (centres unmarked) [Lorazepam]
subject-reported effects (subject): a little “loopy”
anxiety reported [6, 12]: feeling at ease and anxiety free
sedation reported [6, 12]: did not feel sedated
anxiety reported ([6]; Lorazepam alone): their anxiety was ameliorated
sedation reported ([6]; Lorazepam alone): severely sedated
sleep in an afternoon ([6]; Lorazepam alone): over 3 hours
anxiety reported [6, 13]: hostile and anxious
sedation reported [6, 13]: somewhat sedated
anxiety reported [6, 14]: less anxious
sedation reported [6, 14]: sedated
anxiety reported [6, 15]: upon waking felt much less anxious than without treatment
sedation reported [6, 15]: as sedated as with Lorazepam alone
2:00 SSS (four healthy volunteers [7]; [16]): X - Asleep
4:00 SSS (four healthy volunteers [7]; [16]): 2
6:00 SSS (four healthy volunteers [7]; [16]): 2
4:00 SSS (four healthy volunteers [7]; [17]): 2 (2×) and 3 and X - Asleep
6:00 SSS (four healthy volunteers [7]; [17]): 2 (3×) and X - Asleep
sleep duration of individual subjects (four healthy volunteers [7]; Lorazepam 1.0 mg + placebo): three hours and 3.5 hours and 2.5 hours and 1 hour 15 minutes
time until subject was asleep (four healthy volunteers [7]; Lorazepam 1.0 mg + placebo): within a half hour; also recorded: in one and a half hours
sleep duration of individual subjects (four healthy volunteers [7]; [18]): stayed awake throughout the study and half an hour and 15 minutes and one hour
time until subject was asleep (four healthy volunteers [7]; [18]): within an hour and a half
2:00 SSS (four healthy volunteers [7]; [19]): 3 and 2
4:00 SSS (four healthy volunteers [7]; [19]): 3 and 2
6:00 SSS (four healthy volunteers [7]; [19]): 3 and 2
2:00 SSS (four healthy volunteers [7]; [20]): 3 (2×) and X - Asleep and 2
4:00 SSS (four healthy volunteers [7]; [20]): 3 and 2 (2×) and X - Asleep
6:00 SSS (four healthy volunteers [7]; [20]): 3 (3×) and 2
total sleep time (four healthy volunteers [7]; second session, Lorazepam administrated with neuromodulators, two subjects): 30 min
Elimination Half-Life [4]: 10 to 20 h
Tmax [5]: 2 h
bioactivity [5]: 90%

Reference: patent publication US9579299B2, “CNS pharmaceutical compositions and methods of use” (TARGIA PHARMACEUTICALS, priority 2008, dated 2017)
